From US6355799B1, “Substituted benzene compounds, process for their preparation, and herbicidal and defoliant compositions containing them” (ISK Americas Incorporated, priority 1997, dated 2002)

Legend:
Format in all cases: in vivo
[1] = tested on: redroot pigweed (Amaranthus retroflexus, AMARE); experiment: Pre-emerge test, greenhouse herbicide activity screening; settings: phytotoxicity rating 0-100, 14 days after application
How it was run: (§1)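 Compounds in acetone were track-sprayed at 187 l/ha, 15–1000 g ai/ha, onto sandy loam pots. Pre-emerge seeds were sown one day before spraying, with surface watering afterwards. Post-emerge plants were at the 2–3 leaf stage and sprayed with 0.25% v/v non-ionic surfactant. Injury was rated 0–100 at 14 days.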

[2] = tested on: barnyardgrass (Echinochloa crus-galli, ECHCG); experiment: as above; settings: phytotoxicity rating 0-100, 14 days after application
How it was run: (§2)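 Compounds in acetone were track-sprayed at 15-1000 g ai/ha (187 l/ha) on sandy loam pots: pre-emerge one day after seeding, post-emerge at 2-3 leaf stage with 0.25% v/v non-ionic surfactant. Phytotoxicity was rated 14 days later on a 0 (no damage) to 100 (complete death) scale.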

[3] = tested on: green foxtail (Setaria viridis, SETVI); experiment: as above; settings: phytotoxicity rating 0-100, 14 days after application
How it was run: as §2

[4] = tested on: ivyleaf morningglory (Ipomoea hederacea, IPOHE); experiment: as above; settings: phytotoxicity rating 0-100, 14 days after application
How it was run: as §2

[5] = tested on: johnsongrass (Sorghum halepense, SORHA); experiment: as above; settings: phytotoxicity rating 0-100, 14 days after application
How it was run: as §2

[6] = tested on: lambsquarters (Chenopodium album, CHEAL); experiment: as above; settings: phytotoxicity rating 0-100, 14 days after application
How it was run: as §2

[7] = tested on: large crabgrass (Digitaria sanguinalis, DIGSA); experiment: as above; settings: phytotoxicity rating 0-100, 14 days after application
How it was run: as §2

[8] = tested on: sicklepod (Cassia obtusifolia, CASOB); experiment: as above; settings: phytotoxicity rating 0-100, 14 days after application
How it was run: as §2

[9] = tested on: velvetleaf (Abutilon theophrasti, ABUTH); experiment: as above; settings: phytotoxicity rating 0-100, 14 days after application
How it was run: as §2

[10] = tested on: field corn (Zea mays L., var. Dekalb 535, CORN); experiment: Pre-emerge test, crop safety; settings: crop damage rating 0-100, 14 days after application
How it was run: as §1

[11] = tested on: upland rice (Oryza sp., var. Tebonnet, RICE); experiment: Pre-emerge test, crop safety; settings: crop damage rating 0-100, 14 days after application
How it was run: as §1

[12] = tested on: barnyardgrass (Echinochloa crus-galli, ECHCG); experiment: Post-emerge test, greenhouse herbicide activity screening; settings: post-emerge, 14 days after application, rating scale 0-100
How it was run: (§3)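 Applied at 15–1000 g ai/ha from acetone in 187 l/ha spray volume. Post-emergence applications included 0.25% v/v non-ionic surfactant and reached plants sown 8–21 days before. Pre-emergence applications were incorporated by surface watering. Efficacy or crop damage was rated on a 0–100 scale after 14 days.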

[13] = tested on: green foxtail (Setaria viridis, SETVI); experiment: as above; settings: post-emerge, 14 days after application, rating scale 0-100
How it was run: as §3

[14] = tested on: ivyleaf morningglory (Ipomoea hederacea, IPOHE); experiment: as above; settings: post-emerge, 14 days after application, rating scale 0-100
How it was run: as §3

[15] = tested on: johnsongrass (Sorghum halepense, SORHA); experiment: as above; settings: post-emerge, 14 days after application, rating scale 0-100
How it was run: as §3

[16] = tested on: lambsquarters (Chenopodium album, CHEAL); experiment: as above; settings: post-emerge, 14 days after application, rating scale 0-100
How it was run: as §3

[17] = tested on: large crabgrass (Digitaria sanguinalis, DIGSA); experiment: as above; settings: post-emerge, 14 days after application, rating scale 0-100
How it was run: as §3

[18] = tested on: redroot pigweed (Amaranthus retroflexus, AMARE); experiment: as above; settings: post-emerge, 14 days after application
How it was run: as §3

[19] = tested on: sicklepod (Cassia obtusifolia, CASOB); experiment: as above; settings: post-emerge, 14 days after application, rating scale 0-100
How it was run: as §3

[20] = tested on: velvetleaf (Abutilon theophrasti, ABUTH); experiment: as above; settings: post-emerge, 14 days after application, rating scale 0-100
How it was run: as §3

[21] = tested on: field corn (Zea mays L., var. Dekalb 535, CORN); experiment: Post-emerge test, crop safety; settings: post-emerge, 14 days after application, rating scale 0-100
How it was run: as §2

[22] = tested on: upland rice (Oryza sp., var. Tebonnet, RICE); experiment: Post-emerge test, crop safety; settings: post-emerge, 14 days after application, rating scale 0-100
How it was run: as §2

[23] = 63 g ai/ha, rating scale 0-100 (0 no damage, 100 complete death)
[24] = 250 g ai/ha, rating scale 0-100

In the case of `Cn1c(C(F)(F)F)cc(=O)n(-c2ccc(OC(F)(F)F)cc2NC(=O)c2ccc3ccccc3c2)c1=O` [2-203], the “Pre-emerge Herbicidal Activity AMARE” value ([1]; 63 g ai/ha) is reported as 70, the “Pre-emerge Herbicidal Activity AMARE” value ([1]; 250 g ai/ha) is reported as 100 and the “Pre-emerge Herbicidal Activity ECHCG” value ([2]; 63 g ai/ha) is reported as 0. The “Pre-emerge Herbicidal Activity ECHCG” value ([2]; 250 g ai/ha) was 80, the “Pre-emerge Herbicidal Activity SETVI” value ([3]; 63 g ai/ha) was 20 and the “Pre-emerge Herbicidal Activity SETVI” value ([3]; 250 g ai/ha) was 70. For the same compound, the “Pre-emerge Herbicidal Activity IPOHE” value ([4]; 63 g ai/ha) was 10, the “Pre-emerge Herbicidal Activity IPOHE” value ([4]; 250 g ai/ha) was 70 and the “Pre-emerge Herbicidal Activity SORHA” value ([5]; 63 g ai/ha) was 0. For the same compound, the “Pre-emerge Herbicidal Activity SORHA” value ([5]; 250 g ai/ha) was 40, the “Pre-emerge Herbicidal Activity CHEAL” value ([6]; 63 g ai/ha) was 100 and the “Pre-emerge Herbicidal Activity CHEAL” value ([6]; 250 g ai/ha) was 100. For the same compound, the “Pre-emerge Herbicidal Activity DIGSA” value ([7]; 63 g ai/ha) was 60, the “Pre-emerge Herbicidal Activity DIGSA” value ([7]; 250 g ai/ha) was 90 and the “Pre-emerge Herbicidal Activity CASOB” value ([8]; 63 g ai/ha) was 30. The “Pre-emerge Herbicidal Activity CASOB” value ([8]; 250 g ai/ha) was 90, the “Pre-emerge Herbicidal Activity ABUTH” value ([9]; 63 g ai/ha) was 75 and the “Pre-emerge Herbicidal Activity ABUTH” value ([9]; 250 g ai/ha) was 100. For the same compound, the “Pre-emerge Herbicidal Activity CORN” value ([10]; 63 g ai/ha) was 0, the “Pre-emerge Herbicidal Activity CORN” value ([10]; 250 g ai/ha) was 0 and the “Pre-emerge Herbicidal Activity RICE” value ([11]; 63 g ai/ha) was 10. The “Pre-emerge Herbicidal Activity RICE” value ([11]; 250 g ai/ha) was 20, the “phytotoxicity rating ECHCG” value ([12]; 63 g ai/ha) was 10 and the “phytotoxicity rating ECHCG” value ([12]; 250 g ai/ha) was 30. The “phytotoxicity rating SETVI” value ([13]; 63 g ai/ha) was 20, the “phytotoxicity rating SETVI” value ([13]; 250 g ai/ha) was 30 and the “phytotoxicity rating IPOHE” value ([14]; 63 g ai/ha) was 60. For the same compound, the “phytotoxicity rating IPOHE” value ([14]; 250 g ai/ha) was 95, the “phytotoxicity rating SORHA” value ([15]; 63 g ai/ha) was 10 and the “phytotoxicity rating SORHA” value ([15]; 250 g ai/ha) was 20. For the same compound, the “phytotoxicity rating CHEAL” value ([16]; 63 g ai/ha) was 100, the “phytotoxicity rating CHEAL” value ([16]; 250 g ai/ha) was 100 and the “phytotoxicity rating DIGSA” value ([17]; 63 g ai/ha) was 10. The “phytotoxicity rating DIGSA” value ([17]; 250 g ai/ha) was 30, the “phytotoxicity rating AMARE” value [18, 23] was 100 and the “phytotoxicity rating AMARE” value [18, 24] was 100. The “phytotoxicity rating CASOB” value ([19]; 63 g ai/ha) was 100, the “phytotoxicity rating CASOB” value ([19]; 250 g ai/ha) was 100 and the “phytotoxicity rating ABUTH” value ([20]; 63 g ai/ha) was 100. The “phytotoxicity rating ABUTH” value ([20]; 250 g ai/ha) was 100, the “phytotoxicity rating CORN (crop damage)” value ([21]; 63 g ai/ha) was 10 and the “phytotoxicity rating CORN (crop damage)” value ([21]; 250 g ai/ha) was 10. The “phytotoxicity rating RICE (crop damage)” value ([22]; 63 g ai/ha) was 25 and the “phytotoxicity rating RICE (crop damage)” value ([22]; 250 g ai/ha) was 30.
`COc1c(Cl)cc(F)c(-n2c(=O)cc(C(F)(F)F)n(C)c2=O)c1NC(=O)C1CC1` [2-206] was tested, and the “Pre-emerge Herbicidal Activity AMARE” value ([1]; 63 g ai/ha) was 0, the “Pre-emerge Herbicidal Activity AMARE” value ([1]; 250 g ai/ha) was 80 and the “Pre-emerge Herbicidal Activity ECHCG” value ([2]; 63 g ai/ha) was 0. For the same compound, the “Pre-emerge Herbicidal Activity ECHCG” value ([2]; 250 g ai/ha) was 90, the “Pre-emerge Herbicidal Activity SETVI” value ([3]; 63 g ai/ha) was 0 and the “Pre-emerge Herbicidal Activity SETVI” value ([3]; 250 g ai/ha) was 70. The “Pre-emerge Herbicidal Activity IPOHE” value ([4]; 63 g ai/ha) was 50, the “Pre-emerge Herbicidal Activity IPOHE” value ([4]; 250 g ai/ha) was 90 and the “Pre-emerge Herbicidal Activity SORHA” value ([5]; 63 g ai/ha) was 0. For the same compound, the “Pre-emerge Herbicidal Activity SORHA” value ([5]; 250 g ai/ha) was 40, the “Pre-emerge Herbicidal Activity CHEAL” value ([6]; 63 g ai/ha) was 50 and the “Pre-emerge Herbicidal Activity CHEAL” value ([6]; 250 g ai/ha) was 100. The “Pre-emerge Herbicidal Activity DIGSA” value ([7]; 63 g ai/ha) was 0, the “Pre-emerge Herbicidal Activity DIGSA” value ([7]; 250 g ai/ha) was 80 and the “Pre-emerge Herbicidal Activity CASOB” value ([8]; 63 g ai/ha) was 20. The “Pre-emerge Herbicidal Activity CASOB” value ([8]; 250 g ai/ha) was 60, the “Pre-emerge Herbicidal Activity ABUTH” value ([9]; 63 g ai/ha) was 70 and the “Pre-emerge Herbicidal Activity ABUTH” value ([9]; 250 g ai/ha) was 100. The “Pre-emerge Herbicidal Activity CORN” value ([10]; 63 g ai/ha) was 50, the “Pre-emerge Herbicidal Activity CORN” value ([10]; 250 g ai/ha) was 100 and the “Pre-emerge Herbicidal Activity RICE” value ([11]; 63 g ai/ha) was 60. For the same compound, the “Pre-emerge Herbicidal Activity RICE” value ([11]; 250 g ai/ha) was 80, the “phytotoxicity rating ECHCG” value ([12]; 63 g ai/ha) was 0 and the “phytotoxicity rating ECHCG” value ([12]; 250 g ai/ha) was 30. For the same compound, the “phytotoxicity rating SETVI” value ([13]; 63 g ai/ha) was 0, the “phytotoxicity rating SETVI” value ([13]; 250 g ai/ha) was 0 and the “phytotoxicity rating IPOHE” value ([14]; 63 g ai/ha) was 70. The “phytotoxicity rating IPOHE” value ([14]; 250 g ai/ha) was 90, the “phytotoxicity rating SORHA” value ([15]; 63 g ai/ha) was 0 and the “phytotoxicity rating SORHA” value ([15]; 250 g ai/ha) was 0. For the same compound, the “phytotoxicity rating CHEAL” value ([16]; 63 g ai/ha) was 50, the “phytotoxicity rating CHEAL” value ([16]; 250 g ai/ha) was 70 and the “phytotoxicity rating DIGSA” value ([17]; 63 g ai/ha) was 30. For the same compound, the “phytotoxicity rating DIGSA” value ([17]; 250 g ai/ha) was 20, the “phytotoxicity rating AMARE” value [18, 23] was 20 and the “phytotoxicity rating AMARE” value [18, 24] was 50. The “phytotoxicity rating CASOB” value ([19]; 63 g ai/ha) was 50, the “phytotoxicity rating CASOB” value ([19]; 250 g ai/ha) was 80 and the “phytotoxicity rating ABUTH” value ([20]; 63 g ai/ha) was 50. For the same compound, the “phytotoxicity rating ABUTH” value ([20]; 250 g ai/ha) was 90, the “phytotoxicity rating CORN (crop damage)” value ([21]; 63 g ai/ha) was 0 and the “phytotoxicity rating CORN (crop damage)” value ([21]; 250 g ai/ha) was 0. The “phytotoxicity rating RICE (crop damage)” value ([22]; 63 g ai/ha) was 0 and the “phytotoxicity rating RICE (crop damage)” value ([22]; 250 g ai/ha) was 70.
